According to article PMC8954792 (Viruses, 2022):

System: authentic SARS-CoV-2 Delta (B.1.617.2) variant
Experiment: microbe, parasite or virus in culture
Assay type: cell-based
Conditions: Severe acute respiratory syndrome coronavirus 2, Vero C1008

| Compound | IC50 |
| --- | --- |
| C#CCOc1ccc(CCN2C(=O)/C(=C/c3ccc(-c4ccc(Cl)c(C(=O)O)c4)o3)SC2=S)cc1 [FD007] | 52.5 nM |
| C#CCOCCOc1ccc(CCN2C(=O)/C(=C/c3ccc(-c4ccc(Cl)c(C(=O)O)c4)o3)SC2=S)cc1 [FD008] | 95.9 nM |
| CCOc1ccc(CCN2C(=O)/C(=C/c3ccc(-c4ccc(Cl)c(C(=O)O)c4)o3)SC2=S)cc1 [FD009] | 13.5 nM |
| O=C(O)c1cc(-c2ccc(/C=C3\SC(=S)N(CCc4ccc(OCc5ccc(F)cc5)cc4)C3=O)o2)ccc1Cl [FD010] | 26.3 nM |
| O=C(O)c1cc(-c2ccc(/C=C3\SC(=S)N(CCc4ccc(OCC5CC5)cc4)C3=O)o2)ccc1Cl [FD012] | 126 nM |
| O=C(O)c1cc(-c2ccc(/C=C3\SC(=S)N(CCc4ccc(OCc5ccsc5)cc4)C3=O)o2)ccc1Cl [FD013] | 60.3 nM |
| CCC(CC)COC(=O)[C@H](C)N[P@](=O)(OC[C@H]1O[C@@](C#N)(c2ccc3c(N)ncnn23)[C@H](O)[C@@H]1O)Oc1ccccc1 [Remdesivir, remdesivir, reference compound] | 18.6 nM |
